Measurements taken from EP4111863A1, “PHOSPHORUS USE EFFICIENCY ENHANCERS AS PLANT GROWTH PROMOTORS” (EuroChem Antwerpen, priority 2021, dated 2023).

system: SPX1; experiment: Chemical activity assessment: SPX1 phosphate starvation biomarker, pSPX1::GUS reporter line, GUS stained area; type: in vivo, Arabidopsis thaliana; details: Table 3; 50 µM compound, low phosphate modMS liquid medium, 7 days after germination; low phosphate control average of the same plate
Method: All Arabidopsis plant experiments were performed using the Arabidopsis thaliana Columbia-0 background. The Arabidopsis pSPX1::GUS line is described in the […] 2008, 54: 965-975. For rice, the cultivar Nipponbare was used. For maize, the cultivars DKC 2931 and B104 were used for regular pot experiments and sand-based pot experiments, respectively. For soybean, the cultivar Primus was used. […] The medium was solidified due to the addition of 0,6% Gelrite, unless stated otherwise. In case of vertical plates (root length and root hair measurements), the medium was supplied with 0.5% of sucrose and 1 µM (low phosphate, 1 µM KH2PO4, 9.9 mM KCI), 10 µM (low phosphate 10 µM KH2PO4, 9.9 mM KCI) or 1.25 mM KH2PO4 (high phosphate). Arabidopsis seeds were stratified for 2 days at 4 °C before germination. Seedlings were germinated in climate-controlled growth chambers at 22 °C under continuous light (100 µmol m^-2 s^-1). Husked rice seeds were germinated on wetted Whatman paper for 2 days at 37 °C and then transferred to Sterivent boxes or square Petri dishes with solid medium. Maize and soybean seeds were wetted 24 hours at room temperature prior to sowing in pots.
For the chemical activity assessment 3 to 8 seeds per well of Arabidopsis pSPX1::GUS line were sown in 96-well plates containing 150 µl of low phosphate modMS liquid medium containing 1% of sucrose. Compounds were added in 50 µM concentration, starting from a 5 mM stock of compounds solved in DMSO. Different chemical substances were separately added to different wells. Per plate, 16 control wells were used, 8 containing only the low phosphate medium and 1% DMSO, and 8 containing high phosphate medium and 1% DMSO. 7 days after germination, plates were scanned using a flatbed scanner (EPSON Expression 11000XL) and analyzed for leaf size. After scanning, the growth medium was replaced by GUS staining solution (see Plant Mol. Biol. Rep. 1994, 12: 37-42 for details) and incubated for 1.5 hours at 37 °C. The plates were scanned a second time and analyzed for GUS signal area. Measurements of both leaf area and GUS signal area were conducted by filtering out and measure the green and blue signal, respectively using ImageJ software. If the green leaf area was 50% or less than the control, samples were omitted. Additionally, all results were visually screened for leaf size and GUS signal.

Compound | GUS (SPX1) stained area normalized to the number of seeds (pixels)
CCC(=O)c1ccc(OC(=O)N2CCOCC2)cc1 | 0
Cc1csc(C2CN(Cc3csc(C(C)(C)C)n3)CCO2)n1 (stereo not drawn) | 1
CC1CN(C(=O)CCc2nc(-c3ccsc3)no2)C(C)CO1 (stereo not drawn) | 1
CC1(C)CN(C(=O)c2csc(-c3ccsc3)n2)CCO1 | 31
COc1ccc(-c2nnc(SCC(=O)N3CCOCC3)o2)cc1OC | 32
Cc1nc(C(C)(C)NCC(=O)N2CC(C)OC(C)C2)sc1C (stereo not drawn) | 34
O=C(C1CN(C(=O)CSc2nc3ccccc3o2)c2ccccc2O1)N1CCOCC1 (stereo not drawn) | 34
OC(COc1cccc2ccccc12)CN1CCOC2CCCCC21 (stereo not drawn) | 34
Cc1nc(Cl)cc(N2CCOCC2c2c(C)nn(C)c2C)n1 (stereo not drawn) | 35
C1CCC(Sc2nnc(N3CCOCC3)s2)C1 | 35
N#Cc1c(F)cccc1Sc1nnc(N2CCOCC2)s1 | 35
Cc1nn(C)c(C)c1C1CCCN1CC(O)CN1CCOCC1 (stereo not drawn) | 37
CCC(CC)C(CNC(=O)Nc1ccccc1F)N1CCOCC1 (stereo not drawn) | 37
FC(F)(F)Cn1ccnc1CN1CCOC2(CCCC2)C1 | 38
Cc1ccc(C(C)C)c(OCCNCCN2CCOCC2)c1 | 40
O=C1CCCCCN1CCCNC(=O)N1CCOC2(CCCCCC2)C1 | 40
COc1ccc(OC)c2c1CN(c1nc(CN3CCOCC3)nc3sc(C)c(C)c13)CC2O (stereo not drawn) | 42

Compound | GUS (SPX1) stained area normalized to the number of seeds (pixels)
CSc1nnc(CN2CC(c3ccccc3)OCC2(C)C)s1 (stereo not drawn) | 43
c1ccc2nc(N3CCOCC3)cnc2c1 | 43
O=S(=O)(c1cccc(-c2nnc(SCc3ccccc3)o2)c1)N1CCOCC1 | 43
Cc1cc(C)n(CC2CN(c3ncnc4ccsc34)CCO2)n1 (stereo not drawn) | 44
CCc1nsc(N2CCOC(C)C2)n1 (stereo not drawn) | 44
CC1(C)COCCN1C(=O)c1cnc(-c2cccs2)s1 | 45
Cc1cnc(CN2CCOC(c3ccc(C(F)(F)F)cc3)C2)o1 (stereo not drawn) | 46
CC1CCCN(C(C)CNS(=O)(=O)N2CCOCC2)C1 (stereo not drawn) | 46
Cc1cnc(CN2CCOCC23CCCC3)o1 | 46
CC1CN(C(=O)c2csc(-c3ccsc3)n2)C(C)CO1 (stereo not drawn) | 46
CC1COCCN1Cn1nc(Br)nc1Br (stereo not drawn) | 47
CCC1CN(Cc2cc(=O)n3cc(Cl)ccc3n2)CCO1 (stereo not drawn) | 47
CCCc1csc(NC(=O)N2CCOC3(CCC3)C2)n1 | 49
c1ccc2sc(CN3CCOC(c4nccs4)C3)nc2c1 (stereo not drawn) | 49
Cc1nnc(CN2CCOCC2c2cccn2C)o1 (stereo not drawn) | 50
CC1CN(C(=O)C2(c3ccc(F)cc3)CC2)CC1N1CCOCC1 (stereo not drawn) | 53
